According to ChEMBL document CHEMBL3714742, “Pyrimido (4,5-b) indole derivatives” (2003):
pIC50: −log10 of the molar value. Calls of active or inactive are those of the source. How the calls were made is not given here.

Tests used:
Mus musculus [1] = experiment: Inhibition of anti-CD3 antibody-induced IL4 production in Balb/c mouse dosed intravenously 5 mins before anti-CD3 antibody injection and measured 2 hrs post-challenge by ELISA; format: functional, organism-based
Mus musculus [2] = experiment: Inhibition of anti-CD3 antibody-induced IL2 production in Balb/c mouse dosed intravenously 5 mins before anti-CD3 antibody injection and measured 2 hrs post-challenge by ELISA; format: functional, organism-based
[3] = target: T1, Dual specificity mitogen-activated protein kinase kinase 7 (Homo sapiens, UniProt O14733); experiment: Inhibition of GST-tagged human MKK7 expressed in Escherichia coli (BL21(DE3) pLysS) co-expressing human MEKK catalytic domain using biotinylated and GST-tagged rat GST-KN-SAPKalpha substrate incubated for 1 hr by time-resolved fluorescence based assay
T1 sequence (O14733 whole entry): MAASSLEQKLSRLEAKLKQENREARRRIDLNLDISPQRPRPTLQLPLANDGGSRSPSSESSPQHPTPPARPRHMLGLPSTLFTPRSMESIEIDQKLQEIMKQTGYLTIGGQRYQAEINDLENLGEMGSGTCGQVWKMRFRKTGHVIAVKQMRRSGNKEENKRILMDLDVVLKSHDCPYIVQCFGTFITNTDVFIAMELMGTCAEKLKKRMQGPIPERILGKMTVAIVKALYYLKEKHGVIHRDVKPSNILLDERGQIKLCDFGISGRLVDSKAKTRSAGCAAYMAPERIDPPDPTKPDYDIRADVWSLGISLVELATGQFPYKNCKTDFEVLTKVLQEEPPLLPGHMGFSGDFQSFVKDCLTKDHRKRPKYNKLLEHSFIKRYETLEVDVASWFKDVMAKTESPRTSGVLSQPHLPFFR

Mus musculus [4] = experiment: Inhibition of anti-CD3 antibody-induced IFNgamma production in Balb/c mouse dosed intravenously 5 mins before anti-CD3 antibody injection and measured 2 hrs post-challenge by ELISA; format: functional, organism-based

SMILES | inhibition (Mus musculus [1]) | inhibition (Mus musculus [2]) | pIC50 [3] | inhibition (Mus musculus [4])
CN(c1ncnc2[nH]c3ccc(O)cc3c12)C1CCCCC1 | Active | Active | > 6.00 | Active
CC1CCCN(c2ncnc3[nH]c4ccc(O)cc4c23)C1 (centres undefined) | Active | Active | > 6.00 | Active
Oc1ccc2[nH]c3ncnc(N4CCOCC4)c3c2c1 | Active | Active | > 6.00 | Active
CC(C)N(C)c1nc(N)nc2[nH]c3ccc(O)cc3c12 | Active | Active | > 6.00 | Active
Nc1nc(N2CCC(C(=O)O)CC2)c2c(n1)[nH]c1ccc(O)cc12 | Active | Active | 6.00 | Active
Cc1nc(N2CCCC2)c2c(n1)[nH]c1ccc(O)cc12 | Active | Active | 6.00 | Active
CC1CCCN(c2nc(N)nc3[nH]c4ccc(O)cc4c23)C1 (centres undefined) | Active | Active | > 6.00 | Active
NC(=O)c1ccc2[nH]c3ncnc(N4CCC(CCO)CC4)c3c2c1 | Active | Active | > 6.00 | Active
NC(=O)C1CCN(c2ncnc3[nH]c4ccc(O)cc4c23)CC1 | Active | Active | > 6.00 | Active
Nc1nc(N2CCCCC2)c2c(n1)[nH]c1ccc(C(=O)O)cc12 | Active | Active | > 6.00 | Active
Oc1ccc2[nH]c3ncnc(NC4CCCCCC4)c3c2c1 | Active | Active | > 6.00 | Active
C[C@@H](CO)Nc1ncnc2[nH]c3ccc(O)cc3c12 | Active | Active | > 6.00 | Active
Nc1nc(N2CCC(N3CCCC3)CC2)c2c(n1)[nH]c1ccc(O)cc12 | Active | Active | > 6.00 | Active
CN(CCO)c1nc(N)nc2[nH]c3ccc(O)cc3c12 | Active | Active | > 6.00 | Active
NC(=O)c1ccc2[nH]c3ncnc(N4CCCC(O)C4)c3c2c1 (centres undefined) | Active | Active | > 6.00 | Active
CC(O)CNc1ncnc2[nH]c3ccc(O)cc3c12 (centres undefined) | Active | Active | > 6.00 | Active
CC(C)(C)OC(=O)NC1CCCN(c2ncnc3[nH]c4ccc(C(N)=O)cc4c23)C1 (centres undefined) | Active | Active | > 6.00 | Active
NC(=O)C1CCCN(c2ncnc3[nH]c4ccc(O)cc4c23)C1 (centres undefined) | Active | Active | > 6.00 | Active
Oc1ccc2[nH]c3ncnc(N[C@H]4CC[C@H](O)CC4)c3c2c1 | Active | Active | > 6.00 | Active
NC(=O)c1ccc2[nH]c3ncnc(N4CCCC(N)C4)c3c2c1 (centres undefined) | Active | Active | > 6.00 | Active
NC(=O)c1ccc2[nH]c3ncnc(NC4CCCC4)c3c2c1 | Active | Active | > 6.00 | Active
CCC1CCCCN1c1ncnc2[nH]c3ccc(C(N)=O)cc3c12 (centres undefined) | Active | Active | > 6.00 | Active
CC1CCN(c2ncnc3[nH]c4ccc(C(N)=O)cc4c23)CC1 | Active | Active | > 6.00 | Active
Nc1nc(N2CCOCC2)c2c(n1)[nH]c1ccc(O)cc12 | Active | Active | > 6.00 | Active
Cc1nc(N2CCC(C)CC2)c2c(n1)[nH]c1ccc(O)cc12 | Active | Active | > 6.00 | Active
OCCC1CCCN(c2ncnc3[nH]c4ccc(O)cc4c23)C1 (centres undefined) | Active | Active | > 6.00 | Active

SMILES | inhibition (Mus musculus [1]) | inhibition (Mus musculus [2]) | pIC50 [3] | inhibition (Mus musculus [4])
NCCCNc1ncnc2[nH]c3ccc(C(N)=O)cc3c12 | Active | Active | > 6.00 | Active
CCCN(CCC)c1ncnc2[nH]c3ccc(C(N)=O)cc3c12 | Active | Active | > 6.00 | Active
NC(=O)c1ccc2[nH]c3ncnc(N4CCCC4)c3c2c1 | Active | Active | > 6.00 | Active
Cc1nc(N2CCC(CO)CC2)c2c(n1)[nH]c1ccc(O)cc12 | Active | Active | 6.00 | Active
CN(Cc1ccccc1)c1nc(N)nc2[nH]c3ccc(O)cc3c12 | Active | Active | > 6.00 | Active
Oc1ccc2[nH]c3ncnc(N4CCCC4)c3c2c1 | Active | Active | > 6.00 | Active
CCN(CCO)c1ncnc2[nH]c3ccc(O)cc3c12 | Active | Active | > 6.00 | Active
Oc1ccc2[nH]c3ncnc(N4CCCCC4)c3c2c1 | Active | Active | > 6.00 | Active
Oc1ccc2[nH]c3ncnc(NCCc4c[nH]cn4)c3c2c1 | Active | Active | > 6.00 | Active
Nc1nc(NCCO)c2c(n1)[nH]c1ccc(O)cc12 | Active | Active | > 6.00 | Active
CC1CCCN(c2ncnc3[nH]c4ccc(C(N)=O)cc4c23)C1 (centres undefined) | Active | Active | > 6.00 | Active
NCCNc1ncnc2[nH]c3ccc(O)cc3c12 | Active | Active | > 6.00 | Active
CNc1nc(C)nc2[nH]c3ccc(O)cc3c12 | Active | Active | 6.00 | Active
Nc1nc(N2CCCC2)c2c(n1)[nH]c1ccc(O)cc12 | Active | Active | > 6.00 | Active
NC(=O)c1ccc2[nH]c3ncnc(N4CCOCC4)c3c2c1 | Active | Active | > 6.00 | Active
COC(=O)c1ccc2[nH]c3nc(N)nc(N4CCCCC4)c3c2c1 | Active | Active | > 6.00 | Active
Nc1nc(N2CCC3(CC2)OCCO3)c2c(n1)[nH]c1ccc(O)cc12 | Active | Active | > 6.00 | Active
NC(=O)c1ccc2[nH]c3ncnc(N4CCCCCC4)c3c2c1 | Active | Active | > 6.00 | Active
CC(CO)Nc1ncnc2[nH]c3ccc(O)cc3c12 (centres undefined) | Active | Active | > 6.00 | Active
Nc1nc(NCCN2CCCC2)c2c(n1)[nH]c1ccc(O)cc12 | Active | Active | < 5.00 | Active
C[C@H](CO)Nc1ncnc2[nH]c3ccc(O)cc3c12 | Active | Active | > 6.00 | Active
Oc1ccc2[nH]c3ncnc(NC4CCCCC4)c3c2c1 | Active | Active | > 6.00 | Active
CCN(CC)c1nc(C)nc2[nH]c3ccc(O)cc3c12 | Active | Active | 6.00 | Active
COCCNc1ncnc2[nH]c3ccc(O)cc3c12 | Active | Active | > 6.00 | Active
CC(C)(C)OC(=O)NCCCNc1ncnc2[nH]c3ccc(C(N)=O)cc3c12 | Active | Active | > 6.00 | Active
